The data set in a line: Protein binding (Brodersen technique). The settings on record: weaker interaction means better tolerance, read-out: Liaison protéique (converted). The source says: Plus cette interaction est faible et meilleure est la tolérance.

With `O=C(CCCCC(=O)Nc1c(I)cc(I)c(C(=O)O)c1I)Nc1c(I)cc(I)c(C(=O)O)c1I` [Adipiodone de méthylglucamine], the Kd is 78.1 µM.

Values taken from patent EP0073715A1, “Brominated compounds for use in opacifying products” (Société dite: GUERBET S.A., priority 1981, dated 1983).
